Measurements from publication PMC4164784, “4E-BPs require non-canonical 4E-binding motifs and a lateral surface of eIF4E to repress translation” (Nature Communications, 2014).

What was measured:
[1] = system: endogenous eIF4E and HA-tagged 4E-BPs in S2 cells; experiment: Immunofluorescence localization in S2 cells; type: cell-based, Drosophila melanogaster; conditions: −LMB; for localization of endogenous eIF4E (in words): S2 cells overexpressing 4E-BP or mutant; for localization of the 4E-BP (in words): S2 cells, steady-state
endogenous eIF4E = experiment: Coimmunoprecipitation / m7GTP pull-down with endogenous eIF4E in S2 cell lysates; type: cell-based, Drosophila melanogaster; conditions: western blot
Outline: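 S2 cell lysates expressing HA-tagged 4E-BPs (CUP, Thor, 4E-T), eIF4G or mutants, immunoprecipitated with anti-eIF4E or anti-HA antibodies, or pulled down with m7GTP beads for 1 h at 4 °C. Washes in NET buffer (50 mM Tris pH 7.4, 150 mM NaCl, 1 mM EDTA, 0.1% Triton X-100). Bound proteins detected by anti-HA/anti-eIF4E western blot; pre-immune serum and HA-MBP as negative controls.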

eIF4E (full length, WT) = experiment: GST/MBP pull-down of full-length WT eIF4E, coexpressed in E. coli; type: binding, Drosophila melanogaster; conditions: recombinant CUP (311–440), Thor (full length), 4E-T (1–58) or eIF4G (578–650), WT or mutant, SDS–PAGE
Experimental: For the pull-down assays shown in Fig. 3 and Supplementary Fig. 6a, the full-length His6- or SHN-tagged eIF4E (WT or II-AA mutant) was coexpressed with GST or MBP-tagged protein fragments, including CUP (residues 311–440), Thor (full length), 4E-T (residues 1–58) or eIF4G (residues 578–650) in E. coli BL21 (DE3) STAR cells in autoinducing medium[44] overnight at 20 °C. The cells were resuspended in lysis buffer (20 mM Tris–HCl (pH 7.5), 100 mM NaCl, 1 mM DTT) supplemented with EDTA-free protease inhibitor (Roche) and lysed by sonication. The cleared lysates were incubated for 1 h with 20 μl of Protino Glutathione Agarose 4B beads (Macherey-Nagel) or amylose resin (New England Biolabs). The beads were washed three times with lysis buffer, and the bound proteins were eluted with lysis buffer containing 25 mM L-glutathione or 25 mM maltose for 15 min. The proteins were analyzed by 10–15% SDS–PAGE followed by Coomassie blue staining.

[2] = system: eIF4E II-AA mutant (full length); experiment: GST/MBP pull-down of full-length eIF4E II-AA mutant, coexpressed in E. coli; type: binding, Drosophila melanogaster; conditions: recombinant CUP (311–440), Thor (full length), 4E-T (1–58) or eIF4G (578–650), WT or mutant, SDS–PAGE

Row | Substance | localization of endogenous eIF4E (in words) [1] | localization of the 4E-BP (in words) [1] | interaction with endogenous eIF4E (in words) (endogenous eIF4E) | binding to WT eIF4E (in words) (eIF4E (full length, WT)) | binding to eIF4E II-AA mutant (in words) [2]
1 | 4E-T C+NC: 4E-T residues 9–44, eIF4E-binding region short, C-terminal GB1 | the number of eIF4E-positive P-bodies was reduced | still localized to P-bodies |  |  | 
2 | 4E-T C: 4E-T residues 9–21, canonical motif | the number of eIF4E-positive P-bodies was reduced | still localized to P-bodies | drastic reduction | reduced binding | reduced binding
3 | Thor C: Thor residues 50–63, canonical motif |  |  | disrupted the interaction with eIF4E |  | strongly impaired in their binding
